Legend:
EmrAB efflux pump = molecular target: T1, EmrAB efflux pump (Escherichia coli, UniProt P0AEJ0); assay: Monatin efflux per dry cell weight after induction of the EmrAB efflux pump with CCCP; type: cell-based; settings: for increase in monatin/dcw: 31 hours, vs control
T1 construct: endogenous in cells; host or cells: E. coli MG1655 with aspC/proA on pProNde; E. coli BL21 (DE3) with aspC/proA on pET30
Protocol: The strains used for the experiment included E. coli MG1655 : : aspC/proA/pProNde and E. coli BL21 (DE3) : : aspC/proA/pET30. For inoculum, the E. coli strains were grown overnight at 37° C. and 250 rpm in Luria-Bertani (“LB”) medium with 50 μg/mL kanamycin.
For the experimental treatments, Trp-1+ glucose medium, a minimal medium that has been used for increased production of tryptophan in E. coli cells (Zeman, et al. Folia Microbiol. 35:200-204, (1990)), was prepared as follows. To 800 mL nanopure water the following reagents were added: 2 g (NH4)2SO4 and 13.6 g KH2PO4. The pH was adjusted to 7.0, the volume was increased to 948 mL, and the medium was autoclaved. Following sterilization, 0.2 g MgSO4.7H2O, 0.01 g CaCl2.2H2O, and 0.5 mg FeSO4.7H2O were added to the medium in a 1.8 mL volume followed by addition of 0.2 mL of Neidhardt's micronutrient solution. Neidhardt, F. C., et al., “Culture medium for Enterobacteria,” J. Bacteriol. 119:736-746 (1974). Neidhardt's medium includes (per liter): 0.18 g (NH4)6(MO7)24.4H2O, 1.24 g H3BO3, 0.36 g CoCl2.6H2O, 0.12 g CuSO4 (anhydrous), 0.8 g MnCl2.4H2O, and 0.14 g ZnSO4.7H2O. A 50% glucose solution was prepared separately and sterile-filtered. Forty mL of glucose solution and 10 mL of 1 M 3-Morpholinopropanesulfonic acid (“MOPS”) buffer were added to the base medium (950 mL) for a 1 L final volume.
Conditions for the treatments included 250 rpm agitation throughout and 37° C. up to induction, then, 30° C. following induction. At 0.5-0.6 OD600 nm, induction of the plasmid genes was initiated. At induction, 0.5 mM IPTG, 0.5% arabinose, 0.5 mM pyridoxine hydrochloride, and 0.2 mL of Balch's vitamins were added. […] Some treatments included 10 μM carbonyl cyanide 3-chlorophenylhydrazone (“CCCP”) addition to initial medium. One treatment included an additional 10 μM CCCP dose at 3.5 hours following induction. CCCP induces the EmrB efflux system. Samples for monatin analysis and dry cell weight determination were taken at 10, 15.5, 25.6 and 31 hours. Monatin analysis was preformed as described in Example 13.
Analyses of mixtures for monatin and tryptophan derived from in vitro or in vivo biochemical reactions were performed using a Waters/Micromass liquid chromatography-tandem mass spectrometry (“LC/MS/MS”) instrument including a Waters 2795 liquid chromatograph with a Waters 996 Photo-Diode Array (PDA) absorbance monitor placed in series between the chromatograph and a Micromass Quattro Ultima triple quadrupole mass spectrometer. LC separations were made using an Xterra MS C8 reversed-phase chromatography column, 2.1 mm×250 mm at 40° C. The LC mobile phase consisted of A) water containing 0.05% (v/v) trifluoroacetic acid and B) methanol containing 0.05% (v/v) trifluoroacetic acid.
The gradient elution was linear from 5% B to 35% B, 0-4 min, linear from 35% B to 60% B, 4-6.5 min, linear from 60% B to 90% B, 6.5-7 min, isocratic at 90% B 7-11 min, linear from 90% B to 95% B, 11-12 min, linear from 95% B to 5% B, 12-13 min, with a 5 min re-equilibration period between runs. The flow rate was 0.25 mL/min, and PDA absorbance was monitored from 200 nm to 400 nm. All parameters of the ESI-MS were optimized and selected based on generation of protonated molecular ions ([M+H]^+) of the analytes of interest, and production of characteristic fragment ions. The following instrumental parameters were used for LC/MS/MS Multiple Reaction Monitoring (“MRM”) analysis of monatin and tryptophan: Capillary: 3.5 kV; Cone: 40 V; Hex 1: 20 V; Aperture: 0 V; Hex 2: 0 V; Source temperature: 100° C.; Desolvation temperature: 350° C.; Desolvation gas: 500 L/h; Cone gas: 50 L/h; Low mass resolution (Q1): 12.0; High mass resolution (Q1): 12.0; Ion energy: 0.2; Entrance: −5 V; Collision Energy: 8; Exit: 1V; Low mass resolution (Q2): 15; High mass resolution (Q2): 15; Ion energy (Q2): 3.5; Multiplier: 650. […]

[1] = system: E. coli BL21DE3ΔemrB::aspCproApET30; assay: Growth (optical density) with CCCP, emrB knockout mutant; type: cell-based, Escherichia coli; settings: 20 μM CCCP
Protocol: (§1) Single chloramphenicol-resistant colonies were purified by restreaking on appropriate selective media and single colonies were tested by PCR as previously described for the BW25113 knockout strains, to verify the presence of the emrB and acrAB knockouts. The effects of the emrB and acrAB knockouts on the EmrAB and AcrAB transporter systems respectively were determined by assessing the phenotype of the transport mutants using appropriate antibiotics and comparison to wild type control microorganisms as shown in Table 3.1 and Table 3.2 below.

[2] = system: E. coli BL21DE3::aspCproApET30; assay: Growth (optical density) with CCCP, wild type control; type: cell-based, Escherichia coli; settings: 20 μM CCCP
Protocol: as §1

[3] = system: E. coli MG1655::pCECNde/4978 DAT/SEQ ID NO. 42; assay: R,R monatin excreted by E. coli with D-amino acid treatment; type: cell-based, Escherichia coli; settings: 5 mM D-amino acid treatment added 3 hours following induction
Protocol: For inoculum preparation, the E. coli MG1655 : : pCECNde/4978 DAT/SEQ ID NO. 42 were grown overnight at 37° C. with shaking at 250 rpm in Luria-Bertani (“LB”) medium with 25 μg/mL chloramphenicol. For the experimental treatments, Trp-1+glucose medium, a minimal medium that has been used for increased production of tryptophan in E. coli cells (Zeman et al. Folia Microbiol. 35:200-4, 1990), was prepared as follows. To 800 mL nanopure water the following reagents were added: 2 g (NH4)2SO4, 13.6 g KH2PO4. The pH was adjusted to 7.0, the volume was increased to 948 mL, and the medium was autoclaved. Following sterilization, 0.2 g MgSO4.7H2O, 0.01 g CaCl2.2H2O, and 0.5 mg FeSO4.7H2O were added to the medium in a 1.8 mL volume followed by addition of 0.2 mL of Neidhardt's micronutrient solution (Neidhardt F. C., Bloch P. L., and Smith D. F., 1974. Culture medium for Enterobacteria. J. Bacteriol. 119: 736-746). Neidhardt's medium includes (per liter): 0.18 g (NH4)6(MO7)24.4H2O, 1.24 g H3BO3, 0.36 g CoCl2.6H2O, 0.12 g CuSO4 (anhydrous), 0.8 g MnCl2.4H2O, and 0.14 g ZnSO4.7H2O. A 50% glucose solution was prepared separately and sterile-filtered. […]
The monatin from the 48 hour samples was concentrated via a solid phase extraction (“SPE”) column (see Example 27). Then, the R,R and S,S stereoisomers were analyzed by the method of Example 13.

[4] = E. coli BL21 (DE3)::aspCproA pET30, 10 μM CCCP
[5] = E. coli BL21 (DE3)::aspCproA pET30, 10 μM CCCP + 10 μM CCCP
[6] = E. coli MG1655::aspCproA pProNde, 10 μM CCCP

T1 sequence (P02930 23-493): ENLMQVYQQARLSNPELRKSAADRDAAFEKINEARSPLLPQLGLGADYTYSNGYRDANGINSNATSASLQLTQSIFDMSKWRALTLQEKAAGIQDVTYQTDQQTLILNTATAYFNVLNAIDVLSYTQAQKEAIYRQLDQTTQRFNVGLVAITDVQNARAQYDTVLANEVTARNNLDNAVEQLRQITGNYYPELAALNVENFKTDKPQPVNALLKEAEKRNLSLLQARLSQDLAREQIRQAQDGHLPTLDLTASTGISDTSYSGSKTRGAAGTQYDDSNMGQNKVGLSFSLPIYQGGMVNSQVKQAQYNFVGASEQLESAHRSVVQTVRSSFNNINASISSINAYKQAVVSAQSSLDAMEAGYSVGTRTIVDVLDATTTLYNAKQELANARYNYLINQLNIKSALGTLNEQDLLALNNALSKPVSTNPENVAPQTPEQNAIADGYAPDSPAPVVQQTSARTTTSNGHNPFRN
T1 sequence (P0AEJ0 whole entry): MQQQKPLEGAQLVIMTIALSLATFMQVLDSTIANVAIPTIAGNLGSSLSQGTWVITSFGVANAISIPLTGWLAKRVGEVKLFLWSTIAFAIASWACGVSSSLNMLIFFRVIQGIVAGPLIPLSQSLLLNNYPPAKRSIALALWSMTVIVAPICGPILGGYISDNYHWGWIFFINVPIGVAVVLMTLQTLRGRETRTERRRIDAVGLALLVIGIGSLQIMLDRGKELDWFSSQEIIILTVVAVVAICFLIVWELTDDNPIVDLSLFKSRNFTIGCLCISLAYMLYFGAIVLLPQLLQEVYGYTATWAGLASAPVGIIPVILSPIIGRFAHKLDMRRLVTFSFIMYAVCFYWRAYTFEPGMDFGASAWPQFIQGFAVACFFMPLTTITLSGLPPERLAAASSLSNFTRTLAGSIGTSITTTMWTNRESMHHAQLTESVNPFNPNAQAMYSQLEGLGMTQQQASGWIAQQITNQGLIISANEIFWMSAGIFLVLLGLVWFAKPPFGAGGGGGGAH
T1 sequence (P27303 whole entry, further chain): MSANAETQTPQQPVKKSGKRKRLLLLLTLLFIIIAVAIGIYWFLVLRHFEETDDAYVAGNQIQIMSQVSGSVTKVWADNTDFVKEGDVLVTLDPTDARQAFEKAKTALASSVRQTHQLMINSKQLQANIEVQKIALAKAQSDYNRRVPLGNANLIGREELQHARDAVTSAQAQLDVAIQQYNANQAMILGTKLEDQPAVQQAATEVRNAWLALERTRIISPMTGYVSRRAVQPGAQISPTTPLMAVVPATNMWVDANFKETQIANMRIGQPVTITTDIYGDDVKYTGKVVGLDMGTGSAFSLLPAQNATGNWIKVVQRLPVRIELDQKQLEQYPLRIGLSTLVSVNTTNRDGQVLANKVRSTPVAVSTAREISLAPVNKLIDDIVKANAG

Compound | increase in monatin/dcw (EmrAB efflux pump; E. coli BL21 (DE3)::aspC proA pET30, one addition (10 μM) of CCCP) | increase in monatin/dcw (EmrAB efflux pump; E. coli BL21 (DE3)::aspC proA pET30, two additions (20 μM) of CCCP) [fold] | Monatin/dry cell weight at run hour 10 (EmrAB efflux pump; [4]) [mg/g] | Monatin/dry cell weight at run hour 15.5 (EmrAB efflux pump; [4]) [mg/g] | Monatin/dry cell weight at run hour 25.6 (EmrAB efflux pump; [4]) [mg/g] | Monatin/dry cell weight at run hour 31 (EmrAB efflux pump; [4]) [mg/g] | Monatin/dry cell weight at run hour 10 (EmrAB efflux pump; [5]) [mg/g] | Monatin/dry cell weight at run hour 15.5 (EmrAB efflux pump; [5]) [mg/g] | Monatin/dry cell weight at run hour 25.6 (EmrAB efflux pump; [5]) [mg/g] | Monatin/dry cell weight at run hour 31 (EmrAB efflux pump; [5]) [mg/g] | Monatin/dry cell weight at run hour 15.5 (EmrAB efflux pump; [6]) [mg/g] | Monatin/dry cell weight at run hour 25.6 (EmrAB efflux pump; [6]) [mg/g] | Monatin/dry cell weight at run hour 31 (EmrAB efflux pump; [6]) [mg/g] | increase in monatin/dcw (EmrAB efflux pump; E. coli MG1655::aspCproA pProNde) [fold] | decrease in growth ([1]; deletion strain) | Optical Density @ 600 nM, 6 hours ([1]; emrB knockout mutant) | Optical Density @ 600 nM, 24 hours ([1]; emrB knockout mutant) | Optical Density @ 600 nM, 6 hours [2] | Optical Density @ 600 nM, 24 hours [2] | 48 hour Monatin/dry cell wt., Total Monatin [3] [mg/g]
N#CC(C#N)=NNc1cccc(Cl)c1 [CCCP, carbonyl cyanide 3-chlorophenylhydrazone] | greater than 1.8 fold | > 3.5 | 6.4 | 22.5 | 34.3 | 33.0 | 16.2 | 38.0 | 52.1 | 64.2 | 0.7 | 6.7 | 12.4 | 2 | eighty fold/ninety nine percent decrease in growth | 0.024 | 0.014 | 0.034 | 1.113 | –
C[C@@H](N)C(=O)O [D-alanine] | – | – | – | – | – | – | – | – | – | – | – | – | – | – | – | – | – | – | – | 0.33
N[C@H](CCC(=O)O)C(=O)O [D-glutamate] | – | – | – | – | – | – | – | – | – | – | – | – | – | – | – | – | – | – | – | 0.47
